Measurements reported in patent US20260297042A1, “BIARYLAMIDE DERIVATIVES AND THEIR USE AS PKMYT1 INHIBITORS” (CANCER RESEARCH TECHNOLOGY LIMITED, priority 2023, published 2026).

Legend:
Human PKMYT1 = target: T1, Human PKMYT1 (Homo sapiens, UniProt Q99640); experiment: PKMYT1 biochemical ADP-Glo enzymatic assay; details: ADP-Glo
T1 construct: Human PKMYT1 75-362 was cloned as a TEV cleavable 6xHis fusion; 6xHis (TEV cleavable) (cleaved yes); made in house; host or cells: bacterial cells
T1 sequence (Q99640 75-362): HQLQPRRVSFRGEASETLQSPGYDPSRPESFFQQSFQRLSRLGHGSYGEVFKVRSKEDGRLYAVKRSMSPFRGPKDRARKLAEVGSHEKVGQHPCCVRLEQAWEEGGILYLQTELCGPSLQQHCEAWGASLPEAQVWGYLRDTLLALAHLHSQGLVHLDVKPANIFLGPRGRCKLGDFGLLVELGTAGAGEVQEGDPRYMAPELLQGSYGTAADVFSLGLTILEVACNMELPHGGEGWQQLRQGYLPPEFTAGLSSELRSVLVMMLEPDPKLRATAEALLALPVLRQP
Procedure, shortened: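 Luminescent ADP-Glo Max read-out of ADP produced by 15 nM PKMYT1 (residues 75-362, bacterial, His-tag removed) from 500 µM ATP without peptide substrate. Reaction: 50 mM HEPES pH 7.5, 10 mM MgCl2, 1 mM EGTA, 0.01% Brij-35, 60 min, 26 °C. IC50 values fitted from 10-point curves.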

WEE1 = target: T2, WEE1 (Homo sapiens, UniProt P30291); experiment: Selectivity versus WEE1 assay (ADP-Glo enzymatic assay); type: biochemical; details: for IC50: ADP-Glo; for PKMYT1 vs. WEE1 selectivity: fold difference in selectivity for PKMYT1 over WEE1
T2 construct: purchased Thermo Fisher PR7373A
T2 sequence (P30291 whole entry): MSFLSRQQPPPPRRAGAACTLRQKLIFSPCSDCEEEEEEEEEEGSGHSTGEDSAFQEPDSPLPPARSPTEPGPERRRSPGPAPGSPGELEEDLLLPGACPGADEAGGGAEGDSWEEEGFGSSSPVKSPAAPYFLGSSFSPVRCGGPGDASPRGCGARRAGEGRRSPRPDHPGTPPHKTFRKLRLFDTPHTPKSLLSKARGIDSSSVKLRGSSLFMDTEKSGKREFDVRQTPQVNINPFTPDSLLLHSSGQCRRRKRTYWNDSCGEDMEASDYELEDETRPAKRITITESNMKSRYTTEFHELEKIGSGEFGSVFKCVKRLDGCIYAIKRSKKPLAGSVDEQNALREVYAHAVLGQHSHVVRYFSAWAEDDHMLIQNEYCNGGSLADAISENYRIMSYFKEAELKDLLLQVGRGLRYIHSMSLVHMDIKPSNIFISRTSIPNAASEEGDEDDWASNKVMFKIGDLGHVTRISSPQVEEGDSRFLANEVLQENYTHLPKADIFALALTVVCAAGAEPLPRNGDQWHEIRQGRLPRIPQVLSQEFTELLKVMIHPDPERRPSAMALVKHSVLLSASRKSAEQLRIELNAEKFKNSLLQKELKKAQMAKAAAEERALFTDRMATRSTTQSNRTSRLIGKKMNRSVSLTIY
Procedure, shortened: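 ADP-Glo luminescence read-out after a 60 min reaction at 26° C, initiated by 30 µM ATP, with 15 nM enzyme in HEPES pH 7.5/MgCl2/EGTA/Brij-35 buffer containing 1% DMSO. Replicate IC50 values had to agree within 3-fold and fits needed r2 >0.9.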

OVCAR 3 cells = experiment: Cancer cell line proliferation assay, ATP-based cell viability (Cell Titre Glow), OVCAR 3 (CCNE1-amplified); details: KYSE30 (normal CCNE1) GI50 vs. OVCAR 3 (CCNE1-amplified) GI50
Procedure, shortened: (§1)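 Cells were treated with PKMYT1 inhibitors, then proliferation was assessed with CellTiter-Glo and luminescence read. GI50 values were fitted from the resulting data.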

KYSE-30 cells = experiment: Cancer cell line proliferation assay, ATP-based cell viability (Cell Titre Glow), KYSE-30 (normal CCNE1); details: Homo sapiens, KYSE-30 cells (normal CCNE1), concentration that achieves 50% cell growth proliferation inhibition, read-out: KYSE30 Gl50
Procedure, shortened: as §1

[1] = target: T3, Cellular PKMYT1 Biomarker CDK1 pT14 (Homo sapiens, UniProt Q99640); experiment: Inhibition of cellular PKMYT1 biomarker CDK1 pT14 in OVCAR 3 cells (immunoblot); type: cell-based; details: 20 hours incubation
T3 construct: read-out CDK1 phospho-T14 immunoblot
T3 sequence (Q99640 1-499): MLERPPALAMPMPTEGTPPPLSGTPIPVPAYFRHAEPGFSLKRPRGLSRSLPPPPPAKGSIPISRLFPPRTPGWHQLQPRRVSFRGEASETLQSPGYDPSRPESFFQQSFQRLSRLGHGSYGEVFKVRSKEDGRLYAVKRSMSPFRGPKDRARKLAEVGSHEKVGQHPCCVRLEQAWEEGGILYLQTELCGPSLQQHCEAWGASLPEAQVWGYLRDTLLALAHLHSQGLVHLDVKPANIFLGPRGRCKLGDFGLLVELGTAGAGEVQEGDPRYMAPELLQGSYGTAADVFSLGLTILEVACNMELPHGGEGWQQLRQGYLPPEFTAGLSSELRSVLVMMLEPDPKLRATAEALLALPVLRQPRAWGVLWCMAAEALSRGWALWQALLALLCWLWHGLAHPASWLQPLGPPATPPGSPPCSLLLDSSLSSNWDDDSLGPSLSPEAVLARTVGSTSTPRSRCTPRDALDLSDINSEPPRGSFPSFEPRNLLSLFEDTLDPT
Procedure, shortened: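 Confluent OVCAR 3 cells treated with a compound concentration range for 20 h at 37 °C. Lysates analysed by automated capillary immunoblot for CDK1 phospho-T14, with vinculin, fluorescence detection; IC50 by regression.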

[2] = 15 nM PKMYT1 kinase domain, 500 µM ATP, 60 minutes at 26° C., banded
[3] = 15 nM WEE1, 60 minutes at 26° C., banded
[4] = banded, ">N" = at least in this band but could be higher
[5] = PKMYT1 kinase domain 15 nM, banded values

| SMILES | IC50 (Human PKMYT1; [2]) [nM] | IC50 (WEE1; [3]) [nM] | PKMYT1 vs. WEE1 selectivity (WEE1; [4]) | Selectivity ratio KYSE30 Gl50 vs. OVCAR3 Gl50 (OVCAR 3 cells) | GI50 (KYSE-30 cells) [nM] | IC50 [1] [nM] | IC50 (Human PKMYT1; [5]) [nM] | IC50 (WEE1; WEE1 15 nM, banded values) [nM] | PKMYT1 vs. WEE1 selectivity (WEE1; banded) |
| --- | --- | --- | --- | --- | --- | --- | --- | --- | --- |
| Cc1cc(Nc2ncc(C(=O)Nc3c(C)ccc(O)c3C)s2)nc(NCCC(C)(C)C)n1 [BAA-338, 2-((2-((3,3-Dimethylbutyl)amino)-6-methylpyrimidin-4-yl)amino)-N-(3-hydroxy-2,6-dimethylphenyl)thiazole-5-carboxamide] | < 50 | 1000 to 11000 | X (100-<1000 fold) | Y (>20 fold) | < 500 | < 100 |  |  |  |
| Cc1ccc(N[S+]([O-])C(C)(C)C)nc1Nc1ncc(C(=O)Nc2c(C)ccc(O)c2C)s1 (stereo not drawn) [BAA-340, 2-((6-((tert-Butylsulfinyl)amino)-3-methylpyridin-2-yl)amino)-N-(3-hydroxy-2,6-dimethylphenyl)thiazole-5-carboxamide] | < 50 | 50 to 1000 | V (3-<10 fold) | Y (>20 fold) | 500 to 5000 | 100 to 1000 |  |  |  |
| Cc1ccc(NC(=O)C(C)(C)O)nc1Nc1ncc(C(=O)Nc2c(C)ccc(O)c2C)s1.Cl [BAA-342, N-(3-Hydroxy-2,6-dimethylphenyl)-2-((6-(2-hydroxy-2-methylpropanamido)-3-methylpyridin-2-yl)amino)thiazole-5-carboxamide hydrochloride] | < 50 | > 11000 | X (100-<1000 fold) | Y (>20 fold) | > 5000 | < 100 |  |  |  |
| Cc1cn(-c2ccccc2)nc1Nc1ncc(C(=O)Nc2c(C)ccc(O)c2C)s1 [BAA-361, N-(3-hydroxy-2,6-dimethylphenyl)-2-((4-methyl-1-phenyl-1H-pyrazol-3-yl)amino)thiazole-5-carboxamide] | < 50 | > 11000 | X (100-<1000 fold) | Y (>20 fold) | 500 to 5000 | < 100 |  |  |  |
| Cc1cn(-c2ccccn2)nc1Nc1ncc(C(=O)Nc2c(C)ccc(O)c2C)s1 [BAA-365, N-(3-hydroxy-2,6-dimethylphenyl)-2-((4-methyl-1-(pyridin-2-yl)-1H-pyrazol-3-yl)amino)thiazole-5-carboxamide] | < 50 | > 11000 | X (100-<1000 fold) | Y (>20 fold) | 500 to 5000 | < 100 |  |  |  |
| Cc1cn(S(=O)(=O)c2ccccc2)nc1Nc1ncc(C(=O)Nc2c(C)ccc(O)c2C)s1 [BAA-379, N-(3-Hydroxy-2,6-dimethylphenyl)-2-((4-methyl-1-(phenylsulfonyl)-1H-pyrazol-3-yl)amino)thiazole-5-carboxamide] | < 50 | > 11000 | X (100-<1000 fold) | X (3-20 fold) | > 5000 | < 100 |  |  |  |
| Cc1cn(CC(=O)N2CC3(CCC3)C2)nc1Nc1ncc(C(=O)Nc2c(C)ccc(O)c2C)s1 [BAA-381, N-(3-hydroxy-2,6-dimethylphenyl)-2-((4-methyl-1-(2-oxo-2-(2-azaspiro[3.3]heptan-2-yl)ethyl)-1H-pyrazol-3-yl)amino)thiazole-5-carboxamide] | < 50 | 1000 to 11000 | X (100-<1000 fold) | Y (>20 fold) | > 5000 | < 100 |  |  |  |
| Cc1cnccc1-n1cc(C)c(Nc2ncc(C(=O)Nc3c(C)ccc(O)c3C)s2)n1 [BAA-384, N-(3-hydroxy-2,6-dimethylphenyl)-2-((4-methyl-1-(3-methylpyridin-4-yl)-1H-pyrazol-3-yl)amino)thiazole-5-carboxamide] | < 50 | 1000 to 11000 | X (100-<1000 fold) | Y (>20 fold) | 500 to 5000 | < 100 |  |  |  |
| Cc1cn(-c2cnn(C)c2)nc1Nc1ncc(C(=O)Nc2c(C)ccc(O)c2C)s1 [BAA-385, 2-((1′′,4-dimethyl-1′H-[1,4′-bipyrazol]-3-yl)amino)-N-(3-hydroxy-2,6-dimethylphenyl)thiazole-5-carboxamide] | < 50 | 1000 to 11000 | X (100-<1000 fold) | Y (>20 fold) | 500 to 5000 | < 100 |  |  |  |
| Cc1ccc(O)c(C)c1NC(=O)c1cnc(Nc2cccc(-c3cnn(C)c3)n2)s1 [BAA-390, N-(3-hydroxy-2,6-dimethylphenyl)-2-((6-(1-methyl-1H-pyrazol-4-yl)pyridin-2-yl)amino)thiazole-5-carboxamide] | < 50 | 1000 to 11000 | X (100-<1000 fold) | Y (>20 fold) | 500 to 5000 | < 100 |  |  |  |
| Cc1cn(-c2cnn(C(C)C)c2)nc1Nc1ncc(C(=O)Nc2c(C)ccc(O)c2C)s1 [BAA-391, N-(3-hydroxy-2,6-dimethylphenyl)-2-((1′-isopropyl-4-methyl-1′H-[1,4′-bipyrazol]-3-yl)amino)thiazole-5-carboxamide] | < 50 | 1000 to 11000 | X (100-<1000 fold) | Y (>20 fold) | 500 to 5000 | < 100 |  |  |  |
| Cc1cn(-c2cnn(C(F)F)c2)nc1Nc1ncc(C(=O)Nc2c(C)ccc(O)c2C)s1 [BAA-394, 2-((1′-(difluoromethyl)-4-methyl-1′H-[1,4′-bipyrazol]-3-yl)amino)-N-(3-hydroxy-2,6-dimethylphenyl)thiazole-5-carboxamide] |  |  |  | Y (>20 fold) | 500 to 5000 | < 100 | < 50 | 1000 to 11000 | X (100-<1000 fold) |
| Cc1ccc(-c2cnn(C)c2)nc1Nc1ncc(C(=O)Nc2c(C)ccc(O)c2C)s1 [BAA-396, N-(3-hydroxy-2,6-dimethylphenyl)-2-((3-methyl-6-(1-methyl-1H-pyrazol-4-yl)pyridin-2-yl)amino)thiazole-5-carboxamide] |  |  |  | Y (>20 fold) | 500 to 5000 | < 100 | < 50 | 1000 to 11000 | X (100-<1000 fold) |
